Test results from ChEMBL document CHEMBL4507280 (2021).

Experiments:
[1] = target: RAC-alpha serine/threonine-protein kinase (Homo sapiens) (UniProt P31749); settings: Compound concentration 1000.0 nM
[2] = target: RAC-beta serine/threonine-protein kinase (Homo sapiens) (UniProt P31751); settings: Compound concentration 1000.0 nM
[3] = target: NUAK family SNF1-like kinase 1 (Homo sapiens) (UniProt O60285); settings: Compound concentration 1000.0 nM
[4] = target: Protein-tyrosine kinase 6 (Homo sapiens) (UniProt Q13882); settings: Compound concentration 1000.0 nM
[5] = target: Calcium/calmodulin-dependent protein kinase type 1B (Homo sapiens) (UniProt Q6P2M8); settings: Compound concentration 1000.0 nM
Chain of Calcium/calmodulin-dependent protein kinase type 1B (Homo sapiens) (Q6P2M8 whole entry): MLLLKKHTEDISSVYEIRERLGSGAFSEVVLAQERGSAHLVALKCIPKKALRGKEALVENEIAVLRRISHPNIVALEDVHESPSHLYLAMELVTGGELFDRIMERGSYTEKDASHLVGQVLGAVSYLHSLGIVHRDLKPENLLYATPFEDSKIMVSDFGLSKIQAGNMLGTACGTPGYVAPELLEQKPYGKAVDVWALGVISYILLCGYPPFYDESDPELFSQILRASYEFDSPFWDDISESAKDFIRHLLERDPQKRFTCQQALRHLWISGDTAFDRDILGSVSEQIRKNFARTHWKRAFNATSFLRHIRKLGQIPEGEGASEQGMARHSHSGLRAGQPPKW

[6] = target: Cyclin-dependent kinase 4 (Homo sapiens) (UniProt P11802); settings: Compound concentration 1000.0 nM
Chain of Cyclin-dependent kinase 4 (Homo sapiens) (P11802 whole entry): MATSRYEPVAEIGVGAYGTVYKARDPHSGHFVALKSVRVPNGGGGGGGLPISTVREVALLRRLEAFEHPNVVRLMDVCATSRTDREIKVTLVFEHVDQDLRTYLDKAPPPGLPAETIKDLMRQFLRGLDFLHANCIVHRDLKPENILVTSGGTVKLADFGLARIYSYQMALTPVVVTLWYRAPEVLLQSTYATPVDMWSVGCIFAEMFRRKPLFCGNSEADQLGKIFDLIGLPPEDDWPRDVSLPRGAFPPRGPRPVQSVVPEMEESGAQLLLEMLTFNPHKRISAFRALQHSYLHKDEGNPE

[7] = target: Cyclin-dependent kinase 4 (Homo sapiens) (UniProt P11802); settings: Compound concentration 1000.0 nM; remark: listed apart in the source
[8] = target: Cyclin-dependent kinase 9 (Homo sapiens) (UniProt P50750); settings: Compound concentration 1000.0 nM
[9] = target: Serine/threonine-protein kinase 17B (Homo sapiens) (UniProt O94768); settings: Compound concentration 1000.0 nM
[10] = target: Dual specificity tyrosine-phosphorylation-regulated kinase 1B (Homo sapiens) (UniProt Q9Y463); settings: Compound concentration 1000.0 nM
[11] = tested on: Epidermal growth factor receptor (Homo sapiens), P00533 [L858R]; settings: Compound concentration 1000.0 nM
[12] = tested on: Epidermal growth factor receptor (Homo sapiens), P00533 [T790M]; settings: Compound concentration 1000.0 nM
[13] = target: Ephrin type-A receptor 6 (Homo sapiens) (UniProt Q9UF33); settings: Compound concentration 1000.0 nM
Chain of Ephrin type-A receptor 6 (Homo sapiens) (Q9UF33 whole entry): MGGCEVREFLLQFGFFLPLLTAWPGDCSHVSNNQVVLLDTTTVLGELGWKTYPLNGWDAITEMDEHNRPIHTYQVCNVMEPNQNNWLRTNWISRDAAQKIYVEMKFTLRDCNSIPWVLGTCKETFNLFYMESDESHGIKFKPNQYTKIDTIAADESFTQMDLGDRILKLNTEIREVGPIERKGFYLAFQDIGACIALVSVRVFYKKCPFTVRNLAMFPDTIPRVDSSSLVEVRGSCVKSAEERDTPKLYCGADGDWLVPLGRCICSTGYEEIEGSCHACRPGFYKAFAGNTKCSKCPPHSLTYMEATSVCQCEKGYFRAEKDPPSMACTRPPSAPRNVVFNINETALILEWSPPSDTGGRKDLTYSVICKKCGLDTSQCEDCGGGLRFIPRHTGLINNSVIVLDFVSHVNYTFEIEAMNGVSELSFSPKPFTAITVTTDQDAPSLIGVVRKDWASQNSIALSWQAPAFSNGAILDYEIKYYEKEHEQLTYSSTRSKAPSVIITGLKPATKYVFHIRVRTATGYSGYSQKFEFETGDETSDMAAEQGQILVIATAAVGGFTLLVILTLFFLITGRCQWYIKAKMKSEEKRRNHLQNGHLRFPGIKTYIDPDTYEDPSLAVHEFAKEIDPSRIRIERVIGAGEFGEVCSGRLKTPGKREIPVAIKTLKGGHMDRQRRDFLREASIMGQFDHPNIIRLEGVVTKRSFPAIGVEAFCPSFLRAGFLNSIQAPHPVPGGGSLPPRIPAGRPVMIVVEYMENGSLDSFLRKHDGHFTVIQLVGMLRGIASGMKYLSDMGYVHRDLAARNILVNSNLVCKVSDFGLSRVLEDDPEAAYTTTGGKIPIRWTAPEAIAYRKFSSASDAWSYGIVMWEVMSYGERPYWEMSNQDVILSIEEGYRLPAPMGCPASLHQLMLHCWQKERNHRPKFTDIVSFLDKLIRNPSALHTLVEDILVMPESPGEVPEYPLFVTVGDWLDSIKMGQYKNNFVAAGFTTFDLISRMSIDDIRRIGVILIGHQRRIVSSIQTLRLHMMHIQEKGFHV

[14] = target: Mitogen-activated protein kinase 4 (Homo sapiens) (UniProt P31152); settings: Compound concentration 1000.0 nM
[15] = target: Tyrosine-protein kinase Fer (Homo sapiens) (UniProt P16591); settings: Compound concentration 1000.0 nM
[16] = tested on: Receptor-type tyrosine-protein kinase FLT3 (Homo sapiens), P36888 [UNDEFINED MUTATION]; settings: Compound concentration 1000.0 nM
[17] = target: Tyrosine-protein kinase HCK (Homo sapiens) (UniProt P08631); settings: Compound concentration 1000.0 nM
[18] = target: Homeodomain-interacting protein kinase 3 (Homo sapiens) (UniProt Q9H422); settings: Compound concentration 1000.0 nM
[19] = target: Tyrosine-protein kinase JAK1 (Homo sapiens) (UniProt P23458); settings: Compound concentration 1000.0 nM
[20] = tested on: Mast/stem cell growth factor receptor Kit (Homo sapiens), P10721 [L576P]; settings: Compound concentration 1000.0 nM
[21] = target: Serine/threonine-protein kinase LATS2 (Homo sapiens) (UniProt Q9NRM7); settings: Compound concentration 1000.0 nM
[22] = target: LIM domain kinase 1 (Homo sapiens) (UniProt P53667); settings: Compound concentration 1000.0 nM
[23] = target: Mitogen-activated protein kinase kinase kinase 4 (Homo sapiens) (UniProt Q9Y6R4); settings: Compound concentration 1000.0 nM
[24] = target: MAP/microtubule affinity-regulating kinase 4 (Homo sapiens) (UniProt Q96L34); settings: Compound concentration 1000.0 nM
[25] = target: Tyrosine-protein kinase Mer (Homo sapiens) (UniProt Q12866); settings: Compound concentration 1000.0 nM
[26] = target: Serine/threonine-protein kinase MRCK alpha (Homo sapiens) (UniProt Q5VT25); settings: Compound concentration 1000.0 nM
Chain of Serine/threonine-protein kinase MRCK alpha (Homo sapiens) (Q5VT25 whole entry): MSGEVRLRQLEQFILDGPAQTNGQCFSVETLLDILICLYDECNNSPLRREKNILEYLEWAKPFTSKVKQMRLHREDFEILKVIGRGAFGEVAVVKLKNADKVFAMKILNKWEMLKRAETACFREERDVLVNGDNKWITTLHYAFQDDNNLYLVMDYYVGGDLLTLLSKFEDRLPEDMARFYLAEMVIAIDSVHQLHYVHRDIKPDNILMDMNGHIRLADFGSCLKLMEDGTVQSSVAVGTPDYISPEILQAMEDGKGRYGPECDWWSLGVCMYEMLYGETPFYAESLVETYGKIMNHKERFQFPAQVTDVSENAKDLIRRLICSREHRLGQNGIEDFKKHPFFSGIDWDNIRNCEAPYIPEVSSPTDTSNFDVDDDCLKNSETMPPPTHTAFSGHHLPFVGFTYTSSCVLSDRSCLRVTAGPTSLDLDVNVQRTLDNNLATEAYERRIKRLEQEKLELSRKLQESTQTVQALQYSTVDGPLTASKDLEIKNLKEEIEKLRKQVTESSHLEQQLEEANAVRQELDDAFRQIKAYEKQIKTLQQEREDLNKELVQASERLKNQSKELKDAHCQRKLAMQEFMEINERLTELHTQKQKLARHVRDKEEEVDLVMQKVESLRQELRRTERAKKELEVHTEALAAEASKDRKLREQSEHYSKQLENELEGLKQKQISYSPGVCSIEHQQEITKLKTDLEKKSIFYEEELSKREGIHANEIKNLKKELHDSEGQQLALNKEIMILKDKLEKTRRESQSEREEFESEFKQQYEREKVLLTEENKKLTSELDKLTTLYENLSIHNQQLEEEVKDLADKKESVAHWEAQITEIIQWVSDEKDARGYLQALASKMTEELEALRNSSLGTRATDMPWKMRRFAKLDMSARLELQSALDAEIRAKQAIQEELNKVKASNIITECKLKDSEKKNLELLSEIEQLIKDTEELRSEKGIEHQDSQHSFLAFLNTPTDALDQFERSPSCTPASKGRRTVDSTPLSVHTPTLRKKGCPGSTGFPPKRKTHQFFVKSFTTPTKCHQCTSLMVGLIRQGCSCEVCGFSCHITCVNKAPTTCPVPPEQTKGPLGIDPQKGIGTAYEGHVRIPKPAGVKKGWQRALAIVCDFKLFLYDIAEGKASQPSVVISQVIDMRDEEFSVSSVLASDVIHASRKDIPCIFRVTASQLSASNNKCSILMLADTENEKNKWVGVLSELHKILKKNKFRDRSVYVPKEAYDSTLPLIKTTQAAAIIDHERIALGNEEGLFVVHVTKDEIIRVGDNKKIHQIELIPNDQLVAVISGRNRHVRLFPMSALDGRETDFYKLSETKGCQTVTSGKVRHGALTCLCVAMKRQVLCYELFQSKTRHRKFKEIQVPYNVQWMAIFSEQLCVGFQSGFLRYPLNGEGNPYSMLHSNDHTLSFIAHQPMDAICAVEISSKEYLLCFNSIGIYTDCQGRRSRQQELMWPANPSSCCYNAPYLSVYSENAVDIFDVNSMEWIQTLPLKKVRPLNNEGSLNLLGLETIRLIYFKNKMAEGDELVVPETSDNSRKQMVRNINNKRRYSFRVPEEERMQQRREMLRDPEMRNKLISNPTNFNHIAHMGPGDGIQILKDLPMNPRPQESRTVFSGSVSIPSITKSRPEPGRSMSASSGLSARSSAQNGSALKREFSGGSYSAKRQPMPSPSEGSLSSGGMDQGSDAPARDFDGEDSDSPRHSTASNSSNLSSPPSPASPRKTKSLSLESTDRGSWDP

[27] = target: Serine/threonine-protein kinase Nek3 (Homo sapiens) (UniProt P51956); settings: Compound concentration 1000.0 nM
[28] = target: Serine/threonine-protein kinase Nek9 (Homo sapiens) (UniProt Q8TD19); settings: Compound concentration 1000.0 nM
[29] = target: Mitogen-activated protein kinase 13 (Homo sapiens) (UniProt O15264); settings: Compound concentration 1000.0 nM
[30] = target: Mitogen-activated protein kinase 12 (Homo sapiens) (UniProt P53778); settings: Compound concentration 1000.0 nM
Chain of Mitogen-activated protein kinase 12 (Homo sapiens) (P53778 whole entry): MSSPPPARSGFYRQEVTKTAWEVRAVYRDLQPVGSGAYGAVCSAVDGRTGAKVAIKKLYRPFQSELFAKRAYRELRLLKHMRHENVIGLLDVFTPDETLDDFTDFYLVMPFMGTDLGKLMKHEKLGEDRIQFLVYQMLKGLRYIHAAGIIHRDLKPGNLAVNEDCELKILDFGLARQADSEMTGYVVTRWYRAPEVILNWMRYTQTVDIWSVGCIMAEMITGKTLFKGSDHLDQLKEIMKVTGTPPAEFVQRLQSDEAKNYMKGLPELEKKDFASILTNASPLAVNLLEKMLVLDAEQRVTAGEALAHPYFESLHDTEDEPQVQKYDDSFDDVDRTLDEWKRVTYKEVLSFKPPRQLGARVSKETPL

[31] = target: Serine/threonine-protein kinase PAK 3 (Homo sapiens) (UniProt O75914); settings: Compound concentration 1000.0 nM
[32] = target: Serine/threonine-protein kinase PLK1 (Homo sapiens) (UniProt P53350); settings: Compound concentration 1000.0 nM
[33] = target: Serine/threonine-protein kinase PLK2 (Homo sapiens) (UniProt Q9NYY3); settings: Compound concentration 1000.0 nM
[34] = target: Serine/threonine-protein kinase PLK4 (Homo sapiens) (UniProt O00444); settings: Compound concentration 1000.0 nM
[35] = target: Proto-oncogene tyrosine-protein kinase receptor Ret (Homo sapiens) (UniProt P07949); settings: Compound concentration 1000.0 nM
[36] = target: Ribosomal protein S6 kinase alpha-2 (Homo sapiens) (UniProt Q15349); settings: Compound concentration 1000.0 nM
[37] = target: Serine/threonine-protein kinase Sgk1 (Homo sapiens) (UniProt O00141); settings: Compound concentration 1000.0 nM
[38] = target: Serine/threonine-protein kinase TAO2 (Homo sapiens) (UniProt Q9UL54); settings: Compound concentration 1000.0 nM
[39] = target: Serine/threonine-protein kinase tousled-like 1 (Homo sapiens) (UniProt Q9UKI8); settings: Compound concentration 1000.0 nM
Chain of Serine/threonine-protein kinase tousled-like 1 (Homo sapiens) (Q9UKI8 whole entry): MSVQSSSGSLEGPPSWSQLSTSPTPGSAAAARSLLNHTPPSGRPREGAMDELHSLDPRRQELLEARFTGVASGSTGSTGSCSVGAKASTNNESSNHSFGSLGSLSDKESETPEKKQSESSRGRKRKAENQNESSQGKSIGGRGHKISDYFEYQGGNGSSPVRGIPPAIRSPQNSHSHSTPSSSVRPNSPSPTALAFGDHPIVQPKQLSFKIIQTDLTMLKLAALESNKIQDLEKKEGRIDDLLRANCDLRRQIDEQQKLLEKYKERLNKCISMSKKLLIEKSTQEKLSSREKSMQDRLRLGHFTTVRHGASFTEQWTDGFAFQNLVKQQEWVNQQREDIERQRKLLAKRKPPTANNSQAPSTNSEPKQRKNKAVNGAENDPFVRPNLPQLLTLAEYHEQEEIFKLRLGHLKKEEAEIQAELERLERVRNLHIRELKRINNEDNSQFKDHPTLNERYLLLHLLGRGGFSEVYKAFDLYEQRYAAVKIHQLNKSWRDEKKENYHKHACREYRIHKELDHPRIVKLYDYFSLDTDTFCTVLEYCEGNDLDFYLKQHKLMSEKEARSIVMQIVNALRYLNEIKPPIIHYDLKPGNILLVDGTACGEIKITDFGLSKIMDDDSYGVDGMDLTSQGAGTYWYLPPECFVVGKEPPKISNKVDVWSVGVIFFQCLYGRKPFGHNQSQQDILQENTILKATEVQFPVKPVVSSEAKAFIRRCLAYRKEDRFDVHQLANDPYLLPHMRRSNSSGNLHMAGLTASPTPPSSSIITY

[40] = target: Activated CDC42 kinase 1 (Homo sapiens) (UniProt Q07912); settings: Compound concentration 1000.0 nM
[41] = target: Serine/threonine-protein kinase WNK2 (Homo sapiens) (UniProt Q9Y3S1); settings: Compound concentration 1000.0 nM
[42] = target: Serine/threonine-protein kinase 32A (Homo sapiens) (UniProt Q8WU08); settings: Compound concentration 1000.0 nM
[43] = target: Tyrosine-protein kinase ZAP-70 (Homo sapiens) (UniProt P43403); settings: Compound concentration 1000.0 nM
[44] = target: D(1A) dopamine receptor (Homo sapiens) (UniProt P21728); settings: Compound concentration 10.0 uM
Chain of D(1A) dopamine receptor (Homo sapiens) (P21728 whole entry): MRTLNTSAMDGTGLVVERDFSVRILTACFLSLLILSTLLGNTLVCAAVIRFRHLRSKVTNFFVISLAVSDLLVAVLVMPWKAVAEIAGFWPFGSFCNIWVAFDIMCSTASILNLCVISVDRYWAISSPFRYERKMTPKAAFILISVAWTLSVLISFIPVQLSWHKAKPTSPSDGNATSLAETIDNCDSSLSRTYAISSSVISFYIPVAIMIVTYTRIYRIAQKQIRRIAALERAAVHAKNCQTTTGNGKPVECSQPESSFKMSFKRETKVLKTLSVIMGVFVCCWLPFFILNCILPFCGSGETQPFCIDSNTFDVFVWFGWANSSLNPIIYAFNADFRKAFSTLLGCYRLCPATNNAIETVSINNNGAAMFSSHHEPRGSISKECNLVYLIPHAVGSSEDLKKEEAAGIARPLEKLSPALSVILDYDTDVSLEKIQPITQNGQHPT

[45] = target: Histamine H1 receptor (Homo sapiens) (UniProt P35367); settings: Compound concentration 10.0 uM

Question: Which residual activity [1] does the source give for `CCC(=O)N[C@H]1CC[C@@H](C(=O)N(C)c2ccc(-c3nc4ccccc4o3)cc2)C1` [BI 99179] here?
Answer: 97%

Question: And the residual activity [2]?
Answer: 89%

Question: What about the residual activity [3] of the same molecule?
Answer: 100%

Question: What about the residual activity [4] of the same molecule?
Answer: 100%

Question: And the residual activity [5]?
Answer: 92%

Question: And the residual activity [6]?
Answer: 79%

Question: And the residual activity [7]?
Answer: 88%

Question: What about the residual activity [8] of the same molecule?
Answer: 95%

Question: What about the residual activity [9] of the same molecule?
Answer: 84%

Question: What about the residual activity [10] of the same molecule?
Answer: 100%

Question: What about the residual activity [11] of the same molecule?
Answer: 97%

Question: What about the residual activity [12] of the same molecule?
Answer: 87%

Question: What about the residual activity [13] of the same molecule?
Answer: 76%

Question: What about the residual activity [14] of the same molecule?
Answer: 100%

Question: And the residual activity [15]?
Answer: 90%

Question: What about the residual activity [16] of the same molecule?
Answer: 91%

Question: What about the residual activity [17] of the same molecule?
Answer: 100%

Question: What about the residual activity [18] of the same molecule?
Answer: 74%

Question: And the residual activity [19]?
Answer: 77%

Question: And the residual activity [20]?
Answer: 61%

Question: And the residual activity [21]?
Answer: 67%

Question: And the residual activity [22]?
Answer: 86%

Question: And the residual activity [23]?
Answer: 100%

Question: What about the residual activity [24] of the same molecule?
Answer: 100%

Question: What about the residual activity [25] of the same molecule?
Answer: 100%

Question: What about the residual activity [26] of the same molecule?
Answer: 87%

Question: And the residual activity [27]?
Answer: 66%

Question: And the residual activity [28]?
Answer: 99%

Question: What about the residual activity [29] of the same molecule?
Answer: 85%

Question: And the residual activity [30]?
Answer: 67%

Question: And the residual activity [31]?
Answer: 98%

Question: And the residual activity [32]?
Answer: 97%

Question: What about the residual activity [33] of the same molecule?
Answer: 96%

Question: What about the residual activity [34] of the same molecule?
Answer: 78%

Question: And the residual activity [35]?
Answer: 92%

Question: And the residual activity [36]?
Answer: 99%

Question: What about the residual activity [37] of the same molecule?
Answer: 100%

Question: And the residual activity [38]?
Answer: 76%

Question: What about the residual activity [39] of the same molecule?
Answer: 84%

Question: What about the residual activity [40] of the same molecule?
Answer: 84%

Question: And the residual activity [41]?
Answer: 74%

Question: What about the residual activity [42] of the same molecule?
Answer: 98%

Question: And the residual activity [43]?
Answer: 82%

Question: And the inhibition [44]?
Answer: -2.15%

Question: What about the inhibition [45] of the same molecule?
Answer: 20.9%

Question: For `CCC(=O)N[C@@H]1CC[C@H](C(=O)N(C)c2ccc(-c3nc4ccccc4o3)cc2)C1` [BI 99990], which residual activity [1] is on record?
Answer: 100%

Question: What about the residual activity [2] of the same molecule?
Answer: 72%

Question: And the residual activity [3]?
Answer: 100%

Question: And the residual activity [4]?
Answer: 90%

Question: What about the residual activity [5] of the same molecule?
Answer: 100%

Question: And the residual activity [6]?
Answer: 96%

Question: What about the residual activity [7] of the same molecule?
Answer: 100%

Question: What about the residual activity [8] of the same molecule?
Answer: 100%

Question: What about the residual activity [9] of the same molecule?
Answer: 99%

Question: What about the residual activity [10] of the same molecule?
Answer: 36%

Question: What about the residual activity [11] of the same molecule?
Answer: 100%

Question: And the residual activity [12]?
Answer: 96%

Question: What about the residual activity [13] of the same molecule?
Answer: 100%

Question: And the residual activity [14]?
Answer: 100%

Question: What about the residual activity [15] of the same molecule?
Answer: 99%

Question: What about the residual activity [16] of the same molecule?
Answer: 100%

Question: And the residual activity [17]?
Answer: 100%

Question: And the residual activity [18]?
Answer: 76%

Question: What about the residual activity [19] of the same molecule?
Answer: 88%

Question: What about the residual activity [20] of the same molecule?
Answer: 100%

Question: What about the residual activity [21] of the same molecule?
Answer: 69%

Question: What about the residual activity [22] of the same molecule?
Answer: 100%

Question: What about the residual activity [23] of the same molecule?
Answer: 83%

Question: What about the residual activity [24] of the same molecule?
Answer: 82%

Question: What about the residual activity [25] of the same molecule?
Answer: 100%

Question: And the residual activity [26]?
Answer: 100%

Question: And the residual activity [27]?
Answer: 73%

Question: And the residual activity [28]?
Answer: 100%

Question: What about the residual activity [29] of the same molecule?
Answer: 100%

Question: And the residual activity [30]?
Answer: 73%

Question: What about the residual activity [31] of the same molecule?
Answer: 98%

Question: And the residual activity [32]?
Answer: 95%

Question: And the residual activity [33]?
Answer: 100%

Question: And the residual activity [34]?
Answer: 100%

Question: And the residual activity [35]?
Answer: 93%

Question: And the residual activity [36]?
Answer: 86%

Question: What about the residual activity [37] of the same molecule?
Answer: 100%

Question: And the residual activity [38]?
Answer: 89%

Question: And the residual activity [39]?
Answer: 100%

Question: And the residual activity [40]?
Answer: 100%

Question: What about the residual activity [41] of the same molecule?
Answer: 92%

Question: And the residual activity [42]?
Answer: 100%

Question: What about the residual activity [43] of the same molecule?
Answer: 100%

Question: What about the inhibition [44] of the same molecule?
Answer: -1.16%

Question: What about the inhibition [45] of the same molecule?
Answer: 18.6%
